From patent US8551984B2, “Aminopyrimidines as SYK inhibitors” (Merck Sharp & Dohme Corp., priority 2009, dated 2013) come the findings set out here.

Where a name gives a salt, the structure may show the parent alone.

One experiment addresses recombinant human SYK (GST-hSYK fusion protein) (Homo sapiens, UniProt P43405). Put plainly: biochemical. As to conditions: rhSYK Activity (IC50), recombinant human GST-SYK 5 pM, ATP 25 μM, biotinylated substrate peptide 250 nM, HTRF, 10-dose titration. Background: TR-FRET usually uses a lanthanide donor and a delayed reading to cut background.
Excerpt: Homogeneous Time-Resolved Fluorescence (HTRF) Assay for the Recombinant Human SYK Enzyme:
For the compound `Cc1cc(Nc2nccc(C(F)(F)F)n2)cc(-c2cnc(CC(C)(C)C(=O)O)s2)c1` [Example 78, 2,2-dimethyl-3-[5-(3-methyl-5-{[4-(trifluoromethyl)pyrimidin-2-yl]amino}phenyl)-1,3-thiazol-2-yl]propanoic acid (potassium salt and TFA salt)], the IC50 was below 0.1 µM.

As for `CCOC(=O)CCc1ncc(-c2cc(C)cc(Nc3nccc(C(F)(F)F)n3)c2)s1` [Example 79-1, Ethyl 3-[5-(3-methyl-5-{[4-(trifluoromethyl)pyrimidin-2-yl]amino}phenyl)-1,3-thiazol-2-yl]-propanoate], the 50% inhibitory concentration (IC50) is below 0.1 µM.

For `Cc1cc(Nc2nccc(C(F)(F)F)n2)cc(-c2cnc(CCC(N)=O)s2)c1` [Example 79-2], the concentration for half-maximal inhibition (IC50) is below 0.1 µM.

Take `Cc1cc(Nc2nccc(C(F)(F)F)n2)cc(-c2cnc(CCC(=O)N(C)C)s2)c1` [Example 79-4]: the IC50 is below 0.1 µM.

Turning to `Cc1cc(Nc2nccc(C(F)(F)F)n2)cc(-c2cnc(CCC(=O)N3CCOCC3)s2)c1` [Example 79-5], the concentration for half-maximal inhibition (IC50) was below 0.1 µM.

Consider `Cc1cc(Nc2nccc(C(F)(F)F)n2)cc(-c2cnc(CCC(=O)NCCO)s2)c1` [Example 79-6], for which the IC50 is below 0.1 µM.

Consider `Cc1cc(Nc2nccc(C(F)(F)F)n2)cc(-c2cnc(CCc3nnco3)s2)c1` [Example 79-7], for which the IC50 was below 0.1 µM.

As for `Cc1cc(Nc2nccc(C(F)(F)F)n2)cc(-c2cnc(CCc3nnc(C)o3)s2)c1` [Example 79-8], the half-inhibitory concentration (IC50) was below 0.1 µM.

Take `Cc1cc(Nc2nccc(C(F)(F)F)n2)cc(-c2cnc(CCc3nnc(C4CC4)o3)s2)c1` [Example 79-9]: the half-maximal inhibitory concentration (IC50) is below 0.1 µM.

`Cc1cc(Nc2nccc(C(F)(F)F)n2)cc(-c2cnc(CC(C)(C)C(N)=O)s2)c1` [Example 79-10]: the half-maximal inhibitory concentration (IC50) is below 0.1 µM.

In the case of `Cc1cc(Nc2nccc(C(F)(F)F)n2)cc(-c2cnc(CC(C)(C)C(=O)N(C)C)s2)c1` [Example 79-11], the IC50 was below 0.1 µM.

Take `Cc1cc(Nc2nccc(C(F)(F)F)n2)cc(-c2cnc(CCC(C)(C)O)s2)c1` [Example 80, 2-methyl-4-[5-(3-methyl-5-{[4-(trifluoromethyl)pyrimidin-2-yl]amino}phenyl)-1,3-thiazol-2-yl]butan-2-ol]: the IC50 is below 0.1 µM.

Take `Cc1cc(Nc2nccc(C(F)(F)F)n2)cc(-c2cnc(C(C)(C)C(=O)OC(C)(C)C)s2)c1` [Example 81, tert-Butyl 2-methyl-2-[5-(3-methyl-5-{[4-(trifluoromethyl)pyrimidin-2-yl]amino}phenyl)-1,3-thiazol-2-yl]propanoate]: the IC50 was in the range of 0.1 to 1 µM.

The same experiment, now with this note: rhSYK Activity, Table 70.
`Cc1cc(Nc2nccc(C(C)(C)C)n2)cc(-c2cnc(C(C)(C)S(N)(=O)=O)s2)c1` [Example 70-1]: the IC50 is below 0.1 µM.

Consider `Cc1cc(Nc2nccc(C(C)C)n2)cc(-c2cnc(C(C)(C)S(N)(=O)=O)s2)c1` [Example 70-2], for which the IC50 was below 0.1 µM.

The same experiment, now with this note: rhSYK Activity, Table 74B.
On to `Cc1cc(Nc2nccc(C(F)(F)F)n2)cc(-c2cnc(C3(S(C)(=O)=O)CCC3)s2)c1` [Example 74B-2], for which the half-maximal inhibitory concentration (IC50) is below 0.1 µM.

For `CS(=O)(=O)C1(c2ncc(-c3cc(Nc4nccc(C(F)(F)F)n4)cc([N+](=O)[O-])c3)s2)CCC1` [Example 74B-3], the concentration for half-maximal inhibition (IC50) fell in the range of 1 to 10 µM.

Regarding `Cc1cc(Nc2nccc(C(F)(F)F)n2)cc(-c2cnc(C3(S(N)(=O)=O)CCC3)s2)c1` [Example 74B-4], the concentration for half-maximal inhibition (IC50) was below 0.1 µM.

Still in this experiment, the particulars now being: rhSYK Activity, table after Example 68.
Take `Cc1cc(Nc2ncc(C(=O)O)cn2)cc(-c2cnc(C3(O)CCC3)s2)c1` [Example 68-1]: the IC50 lay in the range of 0.1 to 1 µM.

For the compound `OC1(c2ncc(-c3cccc(Nc4nccc(C(F)(F)F)n4)c3)s2)CCC1` [Example 68-2], the IC50 was below 0.1 µM.

Still in this experiment, the particulars now being: rhSYK Activity, table after Example 75.
In the case of `NS(=O)(=O)Cc1ncc(-c2cccc(Nc3nccc(C(F)(F)F)n3)c2)s1` [Example 75-1], the IC50 is below 0.1 µM.

Consider `COc1ccnc(Nc2cc(C)cc(-c3cnc(CS(N)(=O)=O)s3)c2)n1` [Example 75-2], for which the IC50 was below 0.1 µM.

As usually defined, the IC50 is the concentration needed to halve the response being measured.
